For 17 compounds, IC50 results are on record in ChEMBL document CHEMBL3351640, “Design, regioselective synthesis and cytotoxic evaluation of 2-aminoimidazole-quinoline hybrids against cancer and primary endothelial cells” (Eur J Med Chem, 2014).

In general, IC50 refers to the concentration needed to halve the response being measured.

SMILES strings stand for the structures.

Tested on in one experiment: not listed separately
The experiment can be described thus: Cytotoxicity against human DLD1 cells after 48 hrs by MTT assay. Conditions: DLD-1, 48 h. In kind it is functional, cell-based. In general terms: Formazan colour is commonly taken as a measure of viable cells.
Compound `Nc1nc(-c2ccccc2)cn1/N=C/c1cc2ccccc2nc1Cl` gave a half-maximal inhibitory concentration (IC50) of 16.4 µM.
For the compound `Cc1ccc(-c2cn(/N=C/c3cc4ccccc4nc3Cl)c(N)n2)cc1`, the IC50 was greater than 50 µM.
The same measure, in the same setting: the result for `COc1ccc(-c2cn(/N=C/c3cc4ccccc4nc3Cl)c(N)n2)cc1` reads greater than 50 µM; that for `Nc1nc(-c2ccc(Cl)cc2)cn1/N=C/c1cc2ccccc2nc1Cl`, greater than 50 µM.
Same read-out and setting: the figure for `Nc1nc(-c2ccc(Br)cc2)cn1/N=C/c1cc2ccccc2nc1Cl` is 23.9 µM; for `Cc1ccc2nc(Cl)c(/C=N/n3cc(-c4ccccc4)nc3N)cc2c1` it is 8.79 µM.
For `Cc1ccc(-c2cn(/N=C/c3cc4cc(C)ccc4nc3Cl)c(N)n2)cc1`, the IC50 was determined as 25.2 µM.
`COc1ccc(-c2cn(/N=C/c3cc4cc(C)ccc4nc3Cl)c(N)n2)cc1` showed an IC50 of 25.7 µM.
Still for that read-out and setting: the result for `Cc1ccc2nc(Cl)c(/C=N/n3cc(-c4ccc(Cl)cc4)nc3N)cc2c1` reads 38.9 µM; that for `Cc1ccc2nc(Cl)c(/C=N/n3cc(-c4ccc(Br)cc4)nc3N)cc2c1`, 39.3 µM.
Same read-out and setting: the figure for `Nc1nc(-c2cccc3ccccc23)cn1/N=C/c1cc2ccccc2nc1Cl` is 9.48 µM; for `Nc1nc(-c2ccc3ccccc3c2)cn1/N=C/c1cc2ccccc2nc1Cl` it is greater than 50 µM.
For `Cc1ccc2nc(Cl)c(/C=N/n3cc(-c4cccc5ccccc45)nc3N)cc2c1`, half-maximal inhibition (IC50) was put at 8.3 µM.
`Cc1ccc2nc(Cl)c(/C=N/n3cc(-c4ccc5ccccc5c4)nc3N)cc2c1` showed an IC50 of 10.2 µM. The IC50 values of the last two compounds are within 1.5-fold of each other.
The compound `Nc1nc(-c2cccs2)cn1/N=C/c1cc2ccccc2nc1Cl` registered an IC50 of 10.3 µM.
The same measure, in the same setting: the figure for `Cc1ccc2nc(Cl)c(/C=N/n3cc(-c4cccs4)nc3N)cc2c1` is 8.99 µM; for `COc1cccc2c1C(=O)c1c(O)c3c(c(O)c1C2=O)C[C@@](O)(C(=O)CO)C[C@@H]3O[C@H]1C[C@H](N)[C@H](O)[C@H](C)O1` [DOXORUBICIN] it is 0.84 µM.

A further experiment deals with HUVEC. The experiment can be described thus: Cytotoxicity against HUVEC cells after 48 hrs by MTT assay. In kind it is cell-based. Conditions: Homo sapiens.
The compound `Nc1nc(-c2ccccc2)cn1/N=C/c1cc2ccccc2nc1Cl` registered a half-inhibitory concentration (IC50) of 46.7 µM.
Compound `Cc1ccc(-c2cn(/N=C/c3cc4ccccc4nc3Cl)c(N)n2)cc1` had an IC50 greater than 50 µM.
Compound `COc1ccc(-c2cn(/N=C/c3cc4ccccc4nc3Cl)c(N)n2)cc1` gave an IC50 of 12.4 µM.
The same measure, in the same setting: the figure for `Nc1nc(-c2ccc(Cl)cc2)cn1/N=C/c1cc2ccccc2nc1Cl` is 28 µM.
`Nc1nc(-c2ccc(Br)cc2)cn1/N=C/c1cc2ccccc2nc1Cl` had a half-inhibitory concentration (IC50) of 11.9 µM. Compared with the last compound, the IC50 is about 2.4-fold lower.
On the same count and under the same terms, the result for `Cc1ccc2nc(Cl)c(/C=N/n3cc(-c4ccccc4)nc3N)cc2c1` reads 41.5 µM.
Still for that read-out and setting: the result for `Cc1ccc(-c2cn(/N=C/c3cc4cc(C)ccc4nc3Cl)c(N)n2)cc1` reads 18 µM; that for `COc1ccc(-c2cn(/N=C/c3cc4cc(C)ccc4nc3Cl)c(N)n2)cc1`, 12.2 µM.
Turning to `Cc1ccc2nc(Cl)c(/C=N/n3cc(-c4ccc(Cl)cc4)nc3N)cc2c1`, the concentration for half-maximal inhibition (IC50) is 38.5 µM.
`Cc1ccc2nc(Cl)c(/C=N/n3cc(-c4ccc(Br)cc4)nc3N)cc2c1` displayed an IC50 of 13.4 µM.
On the same count and under the same terms, the result for `Nc1nc(-c2cccc3ccccc23)cn1/N=C/c1cc2ccccc2nc1Cl` reads greater than 50 µM.
The same measure, in the same setting: the figure for `Nc1nc(-c2ccc3ccccc3c2)cn1/N=C/c1cc2ccccc2nc1Cl` is 36.2 µM; for `Cc1ccc2nc(Cl)c(/C=N/n3cc(-c4cccc5ccccc45)nc3N)cc2c1` it is 9.58 µM; for `Cc1ccc2nc(Cl)c(/C=N/n3cc(-c4ccc5ccccc5c4)nc3N)cc2c1` it is 11.3 µM.
Still for that read-out and setting: the figure for `Nc1nc(-c2cccs2)cn1/N=C/c1cc2ccccc2nc1Cl` is 10.2 µM; for `Cc1ccc2nc(Cl)c(/C=N/n3cc(-c4cccs4)nc3N)cc2c1` it is 38 µM.

The next experiment has as its system MDA-MB-231. The experiment can be described thus: Cytotoxicity against human MDA-MB-231 cells after 48 hrs by MTT assay. In kind it is functional, cell-based. Conditions: MDA-MB-231, 48 h.
`Nc1nc(-c2ccccc2)cn1/N=C/c1cc2ccccc2nc1Cl` displayed a half-maximal inhibitory concentration (IC50) of 49 µM.
For the compound `Cc1ccc(-c2cn(/N=C/c3cc4ccccc4nc3Cl)c(N)n2)cc1`, the IC50 was greater than 50 µM.
For the compound `COc1ccc(-c2cn(/N=C/c3cc4ccccc4nc3Cl)c(N)n2)cc1`, the IC50 was greater than 50 µM.
On the same count and under the same terms, the result for `Nc1nc(-c2ccc(Cl)cc2)cn1/N=C/c1cc2ccccc2nc1Cl` reads greater than 50 µM.
On to `Nc1nc(-c2ccc(Br)cc2)cn1/N=C/c1cc2ccccc2nc1Cl`, for which the half-inhibitory concentration (IC50) was greater than 50 µM.
On to `Cc1ccc2nc(Cl)c(/C=N/n3cc(-c4ccccc4)nc3N)cc2c1`, for which it took 48.1 µM to reach half-maximal inhibition (IC50).
Regarding `Cc1ccc(-c2cn(/N=C/c3cc4cc(C)ccc4nc3Cl)c(N)n2)cc1`, the IC50 was 22.3 µM.
For `COc1ccc(-c2cn(/N=C/c3cc4cc(C)ccc4nc3Cl)c(N)n2)cc1`, the IC50 was determined as 23.6 µM. This IC50 and that of the compound before are within 1.5-fold of each other.
On the same count and under the same terms, the figure for `Cc1ccc2nc(Cl)c(/C=N/n3cc(-c4ccc(Cl)cc4)nc3N)cc2c1` is 35.2 µM; for `Cc1ccc2nc(Cl)c(/C=N/n3cc(-c4ccc(Br)cc4)nc3N)cc2c1` it is 38.2 µM.
On the same count and under the same terms, the result for `Nc1nc(-c2cccc3ccccc23)cn1/N=C/c1cc2ccccc2nc1Cl` reads greater than 50 µM; that for `Nc1nc(-c2ccc3ccccc3c2)cn1/N=C/c1cc2ccccc2nc1Cl`, greater than 50 µM; that for `Cc1ccc2nc(Cl)c(/C=N/n3cc(-c4cccc5ccccc45)nc3N)cc2c1`, greater than 50 µM.
In turn, `Cc1ccc2nc(Cl)c(/C=N/n3cc(-c4ccc5ccccc5c4)nc3N)cc2c1` yielded an IC50 of 35.6 µM.
The same measure, in the same setting: the result for `Nc1nc(-c2cccs2)cn1/N=C/c1cc2ccccc2nc1Cl` reads greater than 50 µM.
Consider `Cc1ccc2nc(Cl)c(/C=N/n3cc(-c4cccs4)nc3N)cc2c1`, for which the IC50 is greater than 50 µM.
Turning to `COc1cccc2c1C(=O)c1c(O)c3c(c(O)c1C2=O)C[C@@](O)(C(=O)CO)C[C@@H]3O[C@H]1C[C@H](N)[C@H](O)[C@H](C)O1` [DOXORUBICIN], it took 1.47 µM to reach half-maximal inhibition (IC50).

Tested on in the next experiment: not listed separately
As to the kind of experiment: Cytotoxicity against human HCT116 cells after 48 hrs by MTT assay. In kind it is functional, cell-based. Conditions: HCT-116, 48 h.
Compound `Nc1nc(-c2ccccc2)cn1/N=C/c1cc2ccccc2nc1Cl` had a half-maximal inhibitory concentration (IC50) of 6.92 µM. This counts as single-digit micromolar.
The compound `Cc1ccc(-c2cn(/N=C/c3cc4ccccc4nc3Cl)c(N)n2)cc1` came in with an IC50 greater than 50 µM.
On the same count and under the same terms, the figure for `COc1ccc(-c2cn(/N=C/c3cc4ccccc4nc3Cl)c(N)n2)cc1` is 31.8 µM; for `Nc1nc(-c2ccc(Cl)cc2)cn1/N=C/c1cc2ccccc2nc1Cl` it is greater than 50 µM; for `Nc1nc(-c2ccc(Br)cc2)cn1/N=C/c1cc2ccccc2nc1Cl` it is greater than 50 µM.
Same read-out and setting: the figure for `Cc1ccc2nc(Cl)c(/C=N/n3cc(-c4ccccc4)nc3N)cc2c1` is 7.12 µM; for `Cc1ccc(-c2cn(/N=C/c3cc4cc(C)ccc4nc3Cl)c(N)n2)cc1` it is 39.6 µM; for `COc1ccc(-c2cn(/N=C/c3cc4cc(C)ccc4nc3Cl)c(N)n2)cc1` it is greater than 50 µM.
The same measure, in the same setting: the figure for `Cc1ccc2nc(Cl)c(/C=N/n3cc(-c4ccc(Cl)cc4)nc3N)cc2c1` is greater than 50 µM.
In the case of `Cc1ccc2nc(Cl)c(/C=N/n3cc(-c4ccc(Br)cc4)nc3N)cc2c1`, the IC50 worked out at 49.9 µM.
On to `Nc1nc(-c2cccc3ccccc23)cn1/N=C/c1cc2ccccc2nc1Cl`, for which the 50% inhibitory concentration (IC50) is 6.34 µM. This IC50 lies about 7.9-fold lower than the previous one.
`Nc1nc(-c2ccc3ccccc3c2)cn1/N=C/c1cc2ccccc2nc1Cl` gave a concentration for half-maximal inhibition (IC50) greater than 50 µM.
The same measure, in the same setting: the result for `Cc1ccc2nc(Cl)c(/C=N/n3cc(-c4cccc5ccccc45)nc3N)cc2c1` reads 5.84 µM; that for `Cc1ccc2nc(Cl)c(/C=N/n3cc(-c4ccc5ccccc5c4)nc3N)cc2c1`, 27.4 µM.
Same read-out and setting: the figure for `Nc1nc(-c2cccs2)cn1/N=C/c1cc2ccccc2nc1Cl` is 7.22 µM.
Still for that read-out and setting: the figure for `Cc1ccc2nc(Cl)c(/C=N/n3cc(-c4cccs4)nc3N)cc2c1` is 7.71 µM; for `COc1cccc2c1C(=O)c1c(O)c3c(c(O)c1C2=O)C[C@@](O)(C(=O)CO)C[C@@H]3O[C@H]1C[C@H](N)[C@H](O)[C@H](C)O1` [DOXORUBICIN] it is 0.34 µM.
